Results taken from patent US20250170239A1, “CELLULAR REPROGRAMMING BY TARGETING THE GOLGI APPARATUS” (MUSC Foundation for Research Development, priority 2023, published 2025).

Experiments:
[1] = test system: Golgi^lo T cells; settings: GYY4137 (0.5 mM) 3 days, stimulated with gp100
Excerpt: Cells were subsequently stimulated with gp100 antigen and analyzed for production of cytokines by FACS (n=4). (FIG. 25B) Quantification of FACS MFI values for MitoTracker Deep Red FM stain in Golgi^hi vs. Golgi^lo cells (n=4 independent samples). (FIG. 25C) Real-time flux in OCR measured using Seahorse metabolic flux analysis. Shown is the quantification of mean oxygen consumption rate (OCR) throughout the assay, spare respiratory capacity (SRC), maximal respiration, and basal respiration (n=experimental replicates representative of 3 separate experiments). (FIG. 25D) FACS sorted Golgi^hi vs. Golgi^lo melanoma epitope gp100 TCR reactive CD8+ T cells from Pmel mouse were analyzed using transmission electron microscopy (TEM) to evaluate mitochondria and Golgi morphology. (FIG. 25E-25H) Global metabolomics analysis was performed on Golgi^hi vs. Golgi^lo Pmel T cells and analyzed for PCA (FIG. 25E) and pathway enrichment (FIG. 25F). […] (FIGS. 25M and 25N) Human CD19 CAR-T cells were expanded and sorted into Golgi^hi and Golgi^lo based on BODIPY TR Ceramide dye fluorescence and were co-cultured at a 1:1 ratio with Raji cells. (FIG. 25M) The percentage of viable Raji cells remaining after 24 hours was analyzed using FACS. (FIG. 25N) Expression of Perforin and Granzyme B was assessed using FACS in sorted CD19 CAR-T cells following co-culture with Raji cells. […]

[2] = test system: Pmel T cells; settings: H2S treated vs control
Experimental: Cells were treated+/−H2S for 3 days of activation followed by 3 days of expansion. For analysis of differentially reactive cysteine residues, the sample preparation and analysis were as described by Gottlieb et al. with minor modifications.72 Cells were lysed in freshly made 9 M urea, 50 mM Tris pH 8 buffer with 100 units/mL Universal Nuclease (Thermo Fisher, Pierce cat #88702). To label free thiols, lysis buffer was supplemented with either 55 mM of stable isotope labeled light (I12C2ONH4) or heavy (I13CD213CONH2) iodoacetamide (Sigma, cat #721328) for control or H2S treated cells, respectively. Equal amounts of heavy or light labeled proteins from 3 biological replicates were combined and reducible thiols were reduced with 70 mM dithiothreitol for 45 min at 25° C. […] Two μg aliquots of peptides from each fraction, obtained using ZipTips with 0.6 μL C18 resin (Millipore, Burlington, MA cat #ZTC18S096), were analyzed by LC-MS/MS on an Easy-nLC 1200 coupled to a Orbitrap Fusion Lumos MS (Thermo Scientific, Waltham, MA). […] Ions were detected in the orbitrap. […]
To control for changes in protein expression, an aliquot of each uncombined, labeled protein sample was analyzed using a label free proteomic approach (MaxQuant LFQ). Proteins were digested as above, and peptides were analyzed using an U3000 nano LC system coupled to an Orbitrap Elite MS (Thermo Scientific). […]

[3] = test system: Tet; settings: CD8+ T cells with or without 0.5 mM GYY4137
Experimental: On day 3, the cells were collected and TET activity was assessed using nuclear protein extract from CD8+ T cells treated with or without 0.5 mM GYY4137.

[4] = test system: human PBMCs; settings: vehicle control or 0.5 mM GYY4137
Experimental: (FIG. 21A) Levels of intracellular glutathione assessed using FACS by employing ThiolTracker Violet dye in control CD19 CAR-T cells or CAR-T cells overexpressing Cbs (CbstdCD19-CAR-T) (n=3). (FIG. 21B) 12 hour Thapsigargin (700 nM) treatment was used to induce ER stress in WT T cells, Cbs-KO T cells, and Cbs-KO T cells+H2S. Levels of phosphorylated PERK were assessed by FACS (n=3). (FIG. 21C) Pmel T cells were treated with either Thapsigargin (700 nM) or Monensin (1 mM) for 12 hours, followed by staining for phosphorylated PERK (p-PERK) and GM130 to assess ER stress and Golgi stress, respectively (n=4). (FIG. 21D) Activated Pmel T cells were treated for 12 hours with either vehicle control or 1 mM Monensin (“+Golgi stress”) before being stained for giantin to assess Golgi dispersion. […] (FIG. 21E) Representative confocal microscopy images of mitochondria (Tom20) and Golgi (giantin) in human PBMCs treated with vehicle control or 0.5 mM GYY4137.
Alexa Fluor 488 (anti-Giantin) and Alexa Fluor 647 (anti-TOMM20) fluorescence were imaged in a Zeiss LSM 880 NLO inverted laser scanning confocal microscope (Thornwood, NY) using a 63× 1.4 N.A. plan-apochromat oil immersion lens. Alexa Fluor 488 and Alexa Fluor 647 were excited at 488 nm and 633 nm, respectively. Emitted light was detected with an Airyscan super-resolution detector at BP 495-550 nm for Giantin label and LP 654 nm for TOMM20. […]

[5] = test system: Sirt1; settings: H2S-treated vs control T cells
Experimental: (FIG. 18C) NAD+ and nicotinamide quantification from metabolomics dataset. (FIG. 18D) SIRT1 deacetylase activity in activated Pmel T cells (means of normalized OD values). (FIGS. 18E and 18F) Pmel T cells were activated with gp100 for 3 days in the presence of vehicle, GYY4137 (0.5 mM), or GYY4137+sirt1 inhibitor EX527 (10 μM). (FIG. 18E) Nuclear and cytoplasmic protein fractions were isolated and western blot analysis was performed to determine relative expression of nuclear and cytoplasmic Foxo1 (n=3). (FIG. 18F) Expression of CD62L and CD44 analyzed by FACS (n=3). (FIG. 18G) Splenocytes from wildtype and Cbs-knockout mice+/−GYY4137 activated with anti-CD3 and anti-CD28 antibodies followed by intranuclear staining for Foxo1. (FIG. 18H) Pmel T cells activated and expanded for metabolic flux analysis. Quantification of oxygen consumption rate (OCR), spare respiratory capacity (SRC), maximal respiration, and basal respiration (n=10 experimental replicates representative of 3 separate experiments). (FIG. 18I) Pmel T cells activated and expanded to day 5 for characterization of mitochondria using FACS, quantified by MFI values for mitoFM Deep Red, TMRM, and mitoSOX dyes (n=4). […] Shown is the quantification of mean oxygen consumption rate (OCR), spare respiratory capacity (SRC), maximal respiration, and basal respiration.

[6] = test system: Pmel CD8+ T cells; assay: FACS phenotyping (Tcm, stemness markers) of activated Pmel T cells; assay type: cell-based, mouse
Excerpt: It was next determined if restoring H2S levels in activated T cells would alter their phenotype. To achieve steady-state levels of H2S in the T cell culture media, water-soluble H2S donor GYY4137 that slowly releases sustained levels of H2S up to 7 days in culture was used (Lee Z. W., et al., 2011, PLOS One, 6(6):e21077).

C1COCCN1.COc1ccc(P(=S)(S)N2CCOCC2)cc1 (stereo not drawn) [GYY4137]
effector functions (cytokines by FACS) of Golgi^lo T cells [1]: partial restoration of their effector functions | free thiols / abundance of ER proteins Prdx4, Ero1, MANF1, Rp17a [2]: enhanced abundance or an increase in the extent of free thiols | free thiols at cysteine 54 in Prdx4 [2]: increase in free thiols at cysteine 54 in Prdx4 | Tet activity [3]: decrease of Tet activity | Golgi organization (giantin, confocal) [4]: more compact Golgi organization | Sirt1 activity [5]: increased Sirt1 activity | maintenance of increase in Tcm phenotype over time ([6]; FACS at day 0, 2, 4, 6, GYY4137 0.5 mM): consistently maintained over six days | expression of Tcf7 and Sca1 (stemness markers) ([6]; GYY4137 0.5 mM, 3 days): significantly enhanced the expression of Tcf7 and Sca1 | Tcm phenotype (CD62L+CD44+ co-expression) ([6]; Pmel T cells activated with gp100 + IL2, GYY4137 0.5 mM, compared to IL2 alone): significant increase in the Tcm phenotype
